pIC50: −log10 of the molar value.
Columns and labels:
[1] = target: T1, ITK (Homo sapiens, UniProt Q08881); test: ITK inhibitory activity, ADP-Glo + ITK Kinase enzyme system kit (Promega); type: biochemical; conditions: ITK enzyme 0.4 ng/uL, ATP 25 uM, 15 min preincubation, luminescence, duplicate
T1 construct: purchased Promega
T1 sequence (Q08881 1-620): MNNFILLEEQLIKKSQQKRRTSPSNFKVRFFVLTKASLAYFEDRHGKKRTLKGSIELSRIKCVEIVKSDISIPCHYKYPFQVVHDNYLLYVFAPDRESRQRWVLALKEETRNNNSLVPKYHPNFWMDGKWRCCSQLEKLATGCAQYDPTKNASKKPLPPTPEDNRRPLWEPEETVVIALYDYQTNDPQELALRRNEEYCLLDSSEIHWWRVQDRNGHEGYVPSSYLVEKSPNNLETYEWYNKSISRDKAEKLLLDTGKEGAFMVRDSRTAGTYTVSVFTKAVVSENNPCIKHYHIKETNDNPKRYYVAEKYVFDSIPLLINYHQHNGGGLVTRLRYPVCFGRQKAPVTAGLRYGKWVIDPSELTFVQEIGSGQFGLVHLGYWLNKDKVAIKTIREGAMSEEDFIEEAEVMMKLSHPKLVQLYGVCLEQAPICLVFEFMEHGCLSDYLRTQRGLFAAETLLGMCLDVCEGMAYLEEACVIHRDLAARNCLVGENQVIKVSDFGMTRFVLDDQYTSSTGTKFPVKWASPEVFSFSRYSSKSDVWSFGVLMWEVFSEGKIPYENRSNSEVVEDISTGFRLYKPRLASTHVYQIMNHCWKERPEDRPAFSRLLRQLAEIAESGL
Method in brief: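 ITK activity by ADP-Glo luminescence: substrate and ATP (final 25 uM) reacted 1 h at 30° C, then ADP-Glo reagent 40 min and detection reagent 30 min at 30° C. IC50 from duplicates, normalised to no-compound and enzyme-free controls.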

[2] = target: T2, BTK (Homo sapiens, UniProt Q06187); test: BTK inhibitory activity, ADP-Glo + BTK Kinase enzyme system kit (Promega); type: biochemical; conditions: BTK enzyme 1 ng/uL, ATP 10 uM, 15 min preincubation, luminescence, duplicate
T2 construct: purchased Promega
Method in brief: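 BTK activity measured by ADP-Glo luminescence: kinase reaction with substrate and 10 uM ATP (final) for 1 h at 30°C, then ADP-Glo reagent 40 min and detection 30 min at 30°C. Run in duplicate; IC50 calculated relative to no-compound and positive controls.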

T2 sequence (Q06187 whole entry): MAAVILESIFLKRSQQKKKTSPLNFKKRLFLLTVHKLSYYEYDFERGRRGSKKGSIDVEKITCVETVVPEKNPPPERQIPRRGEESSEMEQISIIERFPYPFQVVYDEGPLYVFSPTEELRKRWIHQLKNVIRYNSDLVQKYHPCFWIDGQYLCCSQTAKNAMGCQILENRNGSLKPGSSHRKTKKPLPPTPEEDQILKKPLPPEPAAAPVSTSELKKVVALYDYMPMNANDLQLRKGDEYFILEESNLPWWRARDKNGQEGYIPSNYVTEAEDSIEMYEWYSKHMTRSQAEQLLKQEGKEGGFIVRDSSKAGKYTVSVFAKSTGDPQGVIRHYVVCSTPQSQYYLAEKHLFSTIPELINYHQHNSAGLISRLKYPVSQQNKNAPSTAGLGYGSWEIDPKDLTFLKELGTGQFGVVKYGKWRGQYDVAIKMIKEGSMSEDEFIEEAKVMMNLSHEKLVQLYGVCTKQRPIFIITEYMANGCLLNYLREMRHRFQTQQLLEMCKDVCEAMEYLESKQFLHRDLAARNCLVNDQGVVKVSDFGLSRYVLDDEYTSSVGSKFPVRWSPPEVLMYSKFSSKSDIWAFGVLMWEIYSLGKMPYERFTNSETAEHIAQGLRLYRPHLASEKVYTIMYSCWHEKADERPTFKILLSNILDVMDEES

| SMILES | pIC50 [1] | pIC50 [2] |
| --- | --- | --- |
| C=CC(=O)N1CCC[C@@H](n2nc(-c3ccc(C(=O)Nc4ccccn4)cc3Cl)c3c(N)ncc(C=C)c32)C1 [Example 69, (R)-4-(1-(1-acryloylpiperidin-3-yl)-4-amino-7-vinyl-1H-pyrazolo[4,3-c]pyridin-3-yl)-3-chloro-N-(pyridin-2-yl)benzamide] | 8.54 | 8.70 |
| C=CC(=O)N1CCC[C@@H](n2nc(-c3ccc(C(=O)Nc4ccccn4)cc3Cl)c3c(N)ncc(-c4cn[nH]c4)c32)C1 [Example 70, (R)-4-(1-(1-acryloylpiperidin-3-yl)-4-amino-7-(1H-pyrazol-4-yl)-1H-pyrazolo[4,3-c]pyridin-3-yl)-3-chloro-N-(pyridin-2-yl)benzamide] | 8.28 | 8.70 |
| C=CC(=O)N1CCC[C@@H](n2nc(C(=O)Nc3nc4cc(Cl)ccc4o3)c3c(N)nccc32)C1 [Example 71, (R)-1-(1-acryloylpiperidin-3-yl)-4-amino-N-(5-chlorobenzo[d]oxazol-2-yl)-1H-pyrazolo[4,3-c]pyridine-3-carboxamide] | 8.39 | 8.47 |
| C=CC(=O)N1CCC[C@@H](n2nc(C(=O)OC(C)(C)C)c3c(N)nccc32)C1 [Example 72, (R)-tert-butyl 1-(1-acryloylpiperidin-3-yl)-4-amino-1H-pyrazolo[4,3-c]pyridine-3-carboxylate] | 7.17 | 7.05 |
| C=CC(=O)N1CCC[C@@H](n2nc(C(=O)Nc3nc4ccc(Br)cc4o3)c3c(N)nccc32)C1 [Example 73, (R)-1-(1-acryloylpiperidin-3-yl)-4-amino-N-(6-bromobenzo[d]oxazol-2-yl)-1H-pyrazolo[4,3-c]pyridine-3-carboxamide] | 6.85 | 7.49 |
| C=CC(=O)N1CCC[C@@H](n2nc(C(=O)Nc3nc4cc(Cl)ccc4o3)c3c(N)ncc(Cl)c32)C1 [Example 74, (R)-1-(1-acryloylpiperidin-3-yl)-4-amino-7-chloro-N-(5-chlorobenzo[d]oxazol-2-yl)-1H-pyrazolo[4,3-c]pyridine-3-carboxamide] | 8.19 | 8.48 |
| C=CC(=O)N1CCC[C@@H](n2nc(C(=O)Nc3nc4ccccc4o3)c3c(N)ncc(Cl)c32)C1 [Example 75, (R)-1-(1-acryloylpiperidin-3-yl)-4-amino-N-(benzo[d]oxazol-2-yl)-7-chloro-1H-pyrazolo[4,3-c]pyridine-3-carboxamide] | 8.62 | 8.66 |
| C=CC(=O)N1CCC[C@@H](n2nc(C(=O)Nc3nc4cc(F)ccc4o3)c3c(N)ncc(Cl)c32)C1 [Example 76, (R)-1-(1-acryloylpiperidin-3-yl)-4-amino-7-chloro-N-(5-fluorobenzo[d]oxazol-2-yl)-1H-pyrazolo[4,3-c]pyridine-3-carboxamide] | 8.68 | 8.82 |
| C=CC(=O)N1CCC[C@@H](n2nc(C(=O)Nc3nc4ccccc4o3)c3c(N)nccc32)C1 [Example 77, (R)-1-(1-acryloylpiperidin-3-yl)-4-amino-N-(benzo[d]oxazol-2-yl)-1H-pyrazolo[4,3-c]pyridine-3-carboxamide] | 7.88 | 8.30 |
| C=CC(=O)N1CCC[C@@H](n2nc(C(=O)Nc3ccccc3)c3c(N)ncc(Cl)c32)C1 [Example 78, (R)-1-(1-acryloylpiperidin-3-yl)-4-amino-7-chloro-N-phenyl-1H-pyrazolo[4,3-c]pyridine-3-carboxamide] | 7.57 | 7.66 |
| C=CC(=O)N1CCC[C@@H](n2nc(C(=O)Nc3ccc4c(c3)OCCO4)c3c(N)ncc(Cl)c32)C1 [Example 79, (R)-1-(1-acryloylpiperidin-3-yl)-4-amino-7-chloro-N-(2,3-di hydrobenzo[b][1,4]dioxin-6-yl)-1H-pyrazolo[4,3-c]pyridine-3-carboxamide] | 7.26 | 7.00 |
